≈ marks a conversion by molar mass, not a printed value.
Tests used:
Assay type in all cases: cell-based
[1] = test system: ATCC25922 strain (Escherichia coli); assay: Broth microdilution, antibacterial activity of the compound used alone; details: for MIC: read-out: Antibacterial activity of the compound of Formula I, ATCC25922
Excerpt: (§1) The broth microdilution method was used to test the antibacterial effects of the compounds of the present invention against various Gram-negative bacterial strains when used alone.

[2] = test system: ATCC9027 strain (Pseudomonas aeruginosa); assay: as above; details: for MIC: read-out: Antibacterial activity of the compound of Formula I, ATCC9027
Excerpt: as §1

[3] = test system: ATCC19606 strain (Acinetobacter baumannii); assay: as above; details: for MIC: read-out: Antibacterial activity of the compound of Formula I, ATCC19606
Excerpt: as §1

[4] = test system: ATCC13883 strain (Klebsiella pneumoniae); assay: as above; details: for MIC: read-out: Antibacterial activity of the compound of Formula I, ATCC13883
Excerpt: as §1

[5] = test system: ATCC25922 strain (Escherichia coli); assay: Checkerboard antibacterial synergistic activity test with polymyxin E (FIC); set-up: key: FIC≤0.5 synergy; 0.5–1 additive; 1–2 indifferent; ≥2 antagonism; details: combined with polymyxin E
Summary of the method: (§2)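 Checkerboard in MH broth: colistin dilutions 16→0.015 μg/ml × test drug 256→4 μg/ml (concentrations before adding inoculum); drug mix plus bacteria, 37° C., 16 h. FIC cut-offs: ≤0.5 synergy; 0.5–1 additive; 1–2 indifferent; ≥2 antagonism.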

[6] = test system: ATCC9027 strain (Pseudomonas aeruginosa); assay: as above; set-up: key: FIC≤0.5 synergy; 0.5–1 additive; 1–2 indifferent; ≥2 antagonism; details: combined with polymyxin E
Summary of the method: as §2

[7] = test system: ATCC19606 strain (Acinetobacter baumannii); assay: as above; set-up: key: FIC≤0.5 synergy; 0.5–1 additive; 1–2 indifferent; ≥2 antagonism; details: combined with polymyxin E
Summary of the method: as §2

[8] = test system: ATCC13883 strain (Klebsiella pneumoniae); assay: as above; set-up: key: FIC≤0.5 synergy; 0.5–1 additive; 1–2 indifferent; ≥2 antagonism; details: combined with polymyxin E
Summary of the method: as §2

Compound | Antibacterial activity of the compound of Formula I, ATCC25922 [1] | Antibacterial activity of the compound of Formula I, ATCC9027 [2] | Antibacterial activity of the compound of Formula I, ATCC19606 [3] | Antibacterial activity of the compound of Formula I, ATCC13883 [4] | Synergistic activity (FIC value) ATCC25922 [5] | Synergistic activity (FIC value) ATCC9027 [6] | Synergistic activity (FIC value) ATCC19606 [7] | Synergistic activity (FIC value) ATCC13883 [8] | MIC [1] | MIC [2] | MIC [3] | MIC [4]
CSc1cc2cccc(C)n2c1-c1nc(N=C(N)N)sc1Cl [Compound I-127] | 128 µg/mL | 64 µg/mL | 256 µg/mL | 128 µg/mL | 0.14 | 0.06 | 0.31 | 0.09 |  |  |  | 
CSc1cc2cc(Cl)cc(Cl)n2c1-c1nc(N=C(N)N)sc1Cl [Compound I-130] | 256 µg/mL | 256 µg/mL | 256 µg/mL | 256 µg/mL | 0.18 | 0.28 | 0.03 | 0.16 |  |  |  | 
COc1ccc(Oc2cc(Br)cc(-c3csc(N=C4NCCCN4)n3)c2)c(OC)c1 [Compound I-159] | 256 µg/mL | 256 µg/mL | 256 µg/mL | 256 µg/mL | 0.14 | 0.06 | 0.31 | 0.09 |  |  |  | 
NC(N)=Nc1nc(-c2c(F)cccc2-c2nccs2)cs1 [Compound I-80] | 256 µg/mL | 256 µg/mL | 256 µg/mL | 256 µg/mL | 0.63 | 1.25 | 0.52 | 0.52 |  |  |  | 
Cc1ccc(NC(=O)Nc2cccc(-c3nc(N=C(N)N)sc3C)c2)c(C)c1 [Compound I-132] | 256 µg/mL | 256 µg/mL | 256 µg/mL | 256 µg/mL | 0.18 | 0.28 | 0.03 | 0.16 |  |  |  | 
NC(N)=Nc1nc(-c2cc(OCc3ccccc3)no2)cs1 [Compound I-113] |  |  |  |  | 0.53 | 1.25 | 1.25 | 1.25 | 128 µg/mL (≈ 406 µM) | 64 µg/mL (≈ 203 µM) | 256 µg/mL (≈ 812 µM) | 128 µg/mL (≈ 406 µM)
Fc1cc(-c2csc(N=C3NCCCN3)n2)c(F)cc1Oc1ccccc1 [Compound I-136] | 256 µg/mL | 256 µg/mL | 256 µg/mL | 256 µg/mL | 0.5 | 1.25 | 1.25 | 1.25 |  |  |  | 
Cc1ccc(NC(=O)Nc2cccc(-c3c[nH]c(N=C4NCCCN4)n3)c2)c(C)c1 [Compound I-199] | 256 µg/mL | 256 µg/mL | 256 µg/mL | 256 µg/mL | 0.51 | 0.75 | 0.16 | 0.51 |  |  |  | 
NC(N)=Nc1nc(-c2ccc(I)cc2)cs1 [Compound I-33] | 256 µg/mL | 256 µg/mL | 256 µg/mL | 256 µg/mL | 0.5 | 0.63 | 0.28 | 0.25 |  |  |  | 
NC(N)=Nc1nc(-c2cccc(Oc3ccccc3)c2)cs1 [Compound I-2] |  |  |  |  | 0.51 | 0.53 | 0.26 | 0.75 | 256 µg/mL (≈ 825 µM) | 256 µg/mL (≈ 825 µM) | 256 µg/mL (≈ 825 µM) | 256 µg/mL (≈ 825 µM)
COc1ccc(-c2csc(N=C(N)N)n2)cc1 [Compound I-6] | 256 µg/mL | 256 µg/mL | 256 µg/mL | 256 µg/mL | 0.5 | 1.25 | 0.75 | 1.25 |  |  |  | 
Clc1sc(N=C2NCCCN2)nc1-c1ccccc1Oc1ccc(I)cc1I [Compound I-148] | 256 µg/mL | 256 µg/mL | 256 µg/mL | 256 µg/mL | 0.14 | 0.06 | 0.31 | 0.09 |  |  |  | 
COc1ccc(Oc2ccccc2-c2csc(N=C(N)N)n2)c(C)c1 [Compound I-83] | 256 µg/mL | 256 µg/mL | 256 µg/mL | 256 µg/mL | 0.27 | 0.04 | 0.63 | 0.09 |  |  |  | 
Cc1oc(N=C(N)N)nc1-c1cccc(C#N)c1-c1cccs1 [Compound I-79] | 256 µg/mL | 256 µg/mL | 256 µg/mL | 256 µg/mL | 0.63 | 1.25 | 0.52 | 0.52 |  |  |  | 
CC(C)(C)c1ccc(-c2c[nH]c(N=C(N)N)n2)cc1 [Compound I-12] | 256 µg/mL | 256 µg/mL | 256 µg/mL | 256 µg/mL | 0.5 | 0.63 | 0.28 | 0.25 |  |  |  | 

From patent US20260250257A1, “ANTIBACTERIAL AND SYNERGISTIC ACTIVE COMPOUND AND USE THEREOF” (EAST CHINA UNIVERSITY OF SCIENCE AND TECHNOLOGY, priority 2023, published 2026)
